What was measured:
Assay type in all cases: cell-based
S. aureus = assay: MBC, agar plating of dilutions without growth; conditions: Staphylococcus aureus, 99.9% bactericidal, read-out: Minimal bactericidal concentration (MBC)
From the text: (§1) In this paper, antimicrobial activities of 24 QASs were detected by quantitative tests. […] Benzalkonium chloride (BZK) and chlorhexidine acetate (CA) was selected as positive controls. Representative compound POT-C12QAS (2) which synthesised and evaluated in previous work was also taken as a reference compound in MIC, MBC and cytotoxicity tests. […]
(§2) agriculture were used as target pathogens in this study, including three strains of Gram-positive bacteria (S. Aureus, α-H-tococcus, β-H-tococcus), three strains of Gram-negative bacteria (E. coli, P. aeruginosa, Proteus vulgaris) and four strains of fungi (Canidia albicans, Cytospora mandshurica, Physalospora piricola, Aspergillus niger). The antimicrobial tests were assayed, according to standard CLSI methods for antimicrobial dilution susceptibility tests to measure the minimum inhibitory concentration (MIC) and minimum bactericidal concentration (MBC)2.
(§3) A broth tube dilution method was followed to determine the MIC values for all the screened compounds against the micro-organisms, and for comparison benzalkonium chloride (BZK) and chlorhexidine acetate (CA) was used as a reference. For sample preparation, each of the test compounds and reference were dissolved in DMSO or sterile water at a concentration of 1600 μg/mL, and further dilutions of the compounds and reference in culture medium MHB (Muller-Hinton Broth) were prepared at the required quantities of 400, 200, 100 etc., down to 0.39 μg/mL. Bacterial strains and fungal strains were maintained on MHA (Muller-Hinton Agar) medium at 37℃ or 28 ℃ for 12 h or 72h, respectively. The microbial inocula were prepared by suspension in 10 mL of culture medium for colonies from culture on MHA. The cell density of each inoculum was adjusted in culture medium of a 0.5 McFarland standard (1-2×10^8 CFU/mL). The final amount applied was 10^5 CFU/mL for bacteria and fungi. The microbial inocula were added to the twofold diluted samples. One growth control tube was prepared […] the addition of the compound and one blank tube was prepared without the addition of the microorganism. MIC values were read after incubation at 37℃ or 28 ℃ for bacterial and fungal strains, respectively. After 12 h or 72h, the last tube with no growth of micro-organisms was recorded to represent the MIC value expressed in μg/ml. All experiments were carried out three times. […]
(§4) was placed on agar plates in triplicate, and incubated at 37℃ or 28 ℃ for 12 h or 72h. The number of colonies on each plate was read, and the MBC was determined as the lowest concentration that achieved a 99.9% bactericidal in the agar plate.

α-H-tococcus = assay: MBC, agar plating of dilutions without growth; conditions: 99.9% bactericidal, read-out: Minimal bactericidal concentration (MBC)
From the text: as §1, §2, §3, §4

P. aeruginosa = assay: MBC, agar plating of dilutions without growth; conditions: Pseudomonas aeruginosa, 99.9% bactericidal, read-out: Minimal bactericidal concentration (MBC)
From the text: as §1, §2, §3, §4

Proteus vulgaris = assay: MBC, agar plating of dilutions without growth; conditions: 99.9% bactericidal, read-out: Minimal bactericidal concentration (MBC)
From the text: as §1, §2, §3, §4

Canidia albicans = assay: MBC, agar plating of dilutions without growth; conditions: 99.9% bactericidal, read-out: Minimal bactericidal concentration (MBC)
From the text: as §1, §2, §3, §4

E. coli = assay: MBC, agar plating of dilutions without growth; conditions: Escherichia coli, 99.9% bactericidal, read-out: Minimal bactericidal concentration (MBC)
From the text: as §1, §2, §3, §4

Physalospora piricola = assay: MBC, agar plating of dilutions without growth; conditions: 99.9% bactericidal, read-out: Minimal bactericidal concentration (MBC)
From the text: as §1, §2, §3, §4

Cytospora mandshurica = assay: MBC, agar plating of dilutions without growth; conditions: Cytospora, 99.9% bactericidal, read-out: Minimal bactericidal concentration (MBC)
From the text: as §1, §2, §3, §4

Aspergillus niger = assay: MBC, agar plating of dilutions without growth; conditions: 99.9% bactericidal, read-out: Minimal bactericidal concentration (MBC)
From the text: as §1, §2, §3, §4

Haemolysis assay = conditions: human red blood cells (erythrocyte suspension), 1 h at 37 ℃, read-out: Haemolysis rate; for hemolysis at 1 h, 12.5 μg/mL: 12.50 μg/mL
Procedure: The surfactant may be absorbed and penetrate to the cell membrane, where it makes osmotic phenomena by altering the permeability of membrane, which in turn causes the cellular lysis. Haemolysis assay gives quantitative estimation about haemoglobin release when red blood cells are treated with QASs. Haemolytic assay of QASs at different concentration was carried out in Table 4. […] For 5a-b, 6a-b, 10a-c, 13a-b, and 16a-d, their safe concentration can more than 100 μg/mL. Compared with BZK and CA, all QASs were safe to be used when they circulated into the blood in low concentration. […]
The human blood from healthy individual was collected in a tube containing heparin, and the blood was centrifuged at 1500 rpm for 3 min. The […] (Erythrocyte) was collected and plasma was discarded and further washed five times with sterile normal saline solution. Then the cells were diluted to 0.2% of their volume with normal saline solution. 2 mL of the diluted red blood cells suspension was mixed with (a) 2 mL of normal salinesolution as a negative control; (b) 2 mL of distilled water as a positive control; (c) 2 mL of QAS solution which were dispersed into normal saline solution at the different concentrations ranging from 3.125 to 400 μg/mL. Then the mixtures were shaken well and incubated for 1 h at 37 ℃. Finally, the mixtures were centrifuged for 5min at 2000 r/min and the absorbances of supernatant at 540 nm was measured by a microplate reader (Multiskan MK3-Thermo Labsystems, USA). The hemolysis ratio was calculated as follows: The hemolysis ratio(%) = (OD Sample−OD Negative)/(OD Positive −OD Negative) ×100%. The hemolysis evaluation of QASs was performed in triplicate and results were expressed as the mean ± SD.

## C[N+](CCO)(CCO)CCCCCCCCCCCCSc1nc2ccccc2s1 [Compound 13d]
S. aureus
  MBC: 6.25 µg/mL
α-H-tococcus
  MBC: 12.5 µg/mL
P. aeruginosa
  MBC: 25 µg/mL
Proteus vulgaris
  MBC: 25 µg/mL
Canidia albicans
  MBC: 6.25 µg/mL
E. coli
  MBC: 25 µg/mL
Physalospora piricola
  MBC: 3.12 µg/mL
Cytospora mandshurica
  MBC: ~6.25 µg/mL
Aspergillus niger
  MBC: 6.25 µg/mL
Haemolysis assay
  hemolysis at 1 h, 6.25 μg/mL: 0.56 ± 0.13%
  hemolysis at 1 h, 12.5 μg/mL: 1.5 ± 0.72%
  hemolysis at 1 h, 25 μg/mL: 3.98 ± 1.03%
  hemolysis at 1 h, 50 μg/mL: 11.2 ± 2.86%
  hemolysis at 1 h, 100 μg/mL: 48.6 ± 3.54%
  hemolysis at 1 h, 200 μg/mL: 65.2 ± 3.91%
  hemolysis at 1 h, 400 μg/mL: 83.7 ± 4.12%

## C[N+](CCO)(CCO)CCCCCCSc1nnc(-c2ccc(C(F)(F)F)cc2)o1 [Compound 6a]
S. aureus
  MBC: 50 µg/mL
α-H-tococcus
  MBC: 50 µg/mL
P. aeruginosa
  MBC: 100 µg/mL
Proteus vulgaris
  MBC: 100 µg/mL
Canidia albicans
  MBC: 50 µg/mL
E. coli
  MBC: 50 µg/mL
Physalospora piricola
  MBC: 12.5 µg/mL
Cytospora mandshurica
  MBC: 25 µg/mL
Aspergillus niger
  MBC: 25 µg/mL
Haemolysis assay
  hemolysis at 1 h, 6.25 μg/mL: 0.15 ± 0.08%
  hemolysis at 1 h, 12.5 μg/mL: 0.35 ± 0.17%
  hemolysis at 1 h, 25 μg/mL: 0.51 ± 0.19%
  hemolysis at 1 h, 50 μg/mL: 0.99 ± 0.12%
  hemolysis at 1 h, 100 μg/mL: 3.38 ± 1.23%
  hemolysis at 1 h, 200 μg/mL: 7.09 ± 2.89%
  hemolysis at 1 h, 400 μg/mL: 41 ± 5.32%

## [H]/N=C(\N/C(=N/[H])NCCCCCCNC(=N)NC(=N)Nc1ccc(Cl)cc1)Nc1ccc(Cl)cc1 [CA, chlorhexidine acetate, reference compound]
S. aureus
  MBC: 6.25 µg/mL
α-H-tococcus
  MBC: 6.25 µg/mL
P. aeruginosa
  MBC: 25 µg/mL
Proteus vulgaris
  MBC: 12.5 µg/mL
Canidia albicans
  MBC: 12.5 µg/mL
E. coli
  MBC: 12.5 µg/mL
Physalospora piricola
  MBC: 3.12 µg/mL
Cytospora mandshurica
  MBC: 6.25 µg/mL
Aspergillus niger
  MBC: 6.25 µg/mL
Haemolysis assay
  hemolysis at 1 h, 6.25 μg/mL: 0.86 ± 0.28%
  hemolysis at 1 h, 12.5 μg/mL: 2.51 ± 0.87%
  hemolysis at 1 h, 25 μg/mL: 5.29 ± 1.22%
  hemolysis at 1 h, 50 μg/mL: 37 ± 3.78%
  hemolysis at 1 h, 100 μg/mL: 62.2 ± 3.53%
  hemolysis at 1 h, 200 μg/mL: 86 ± 3.82%
  hemolysis at 1 h, 400 μg/mL: 95.7 ± 3.54%

## C[N+](CCO)(CCO)CCCCCCCCCCCCSc1nnc(-c2ccc(C(F)(F)F)cc2)o1.[Br-] [Compound 6d]
S. aureus
  MBC: 12.5 µg/mL
α-H-tococcus
  MBC: 6.25 µg/mL
P. aeruginosa
  MBC: 50 µg/mL
Proteus vulgaris
  MBC: 25 µg/mL
Canidia albicans
  MBC: 12.5 µg/mL
E. coli
  MBC: 25 µg/mL
Physalospora piricola
  MBC: 1.56 µg/mL
Cytospora mandshurica
  MBC: 6.25 µg/mL
Aspergillus niger
  MBC: 6.25 µg/mL
Haemolysis assay
  hemolysis at 1 h, 6.25 μg/mL: 0.64 ± 0.19%
  hemolysis at 1 h, 12.5 μg/mL: 1.05 ± 0.28%
  hemolysis at 1 h, 25 μg/mL: 2.02 ± 3.45%
  hemolysis at 1 h, 50 μg/mL: 4.85 ± 4.65%
  hemolysis at 1 h, 100 μg/mL: 36.4 ± 6.35%
  hemolysis at 1 h, 200 μg/mL: 85.6 ± 4.86%
  hemolysis at 1 h, 400 μg/mL: 92.5 ± 3.87%

Reference: article PMC6010013, “Synthesis, physiochemical property and antimicrobial activity of novel quaternary ammonium salts” (Journal of Enzyme Inhibition and Medicinal Chemistry, 2017)
